Assay results published in paper PMC7719179, “Small molecule inhibition of Dynamin-dependent endocytosis targets multiple niche signals and impairs leukemia stem cells” (Nature Communications, 2020).
“And” between values parts separate entries of the source, which are not always exact repeats. Identical values can stand only once.

Columns and labels:
[1] = tested on: pStat5, Hes1, p-Erk, p-p38, p-S6, p-Akt in Lmo2^Tg DN3a cells; assay: Growth factor-mediated signalling effectors in co-cultured Lmo2^Tg DN3a cells (flow cytometry); format: cell-based, mouse
Procedure: (§1) Phosphoflow analysis was performed as previously described. Briefly, 2 × 10^6 cells stained for surface markers were subsequently resuspended into PBS 1× + 4% v/v paraformaldehyde and incubated for 10 min at 4 °C for fixation. Fixed cells were washed twice using PBS 1×, then resuspended in pre-chilled at −20 °C Perm Buffer III (BD Pharmingen) and incubated 30 min at 4 °C for permeabilization. Cells were washed twice using PBS 1× and incubated overnight at 4 °C in PBS 1× + 2% v/v fetal calf serum (FCS) with Cell Signalling purified antibodies (Genesearch Pty Ltd, Arundel QLD, Australia) against pSTAT5 (Tyr694; #9359), phospho-p38 MAPK (Thr180/Tyr182; #4511), phospho-p44/42 (Erk1/2; #9102), phospho-S6 (Ser235/236; #4856) and phospho-Akt (Ser473; #9271) or isotype control. For intracellular HES1 detection, cells stained for surface markers were subsequently fixed and permeabilized using the BD Cytofix/Cytoperm^TM Kit and incubated overnight at 4 °C in PBS 1× + 2% v/v FCS with a purified antibody against HES1 (D6PU; #11988, Cell Signalling) or isotype control. After staining with primary antibodies for phosphoflow or intracellular detection, cells were incubated in permeabilization buffer with donkey Alexa Fluor 488-conjugated anti-rabbit secondary antibody (A-21206, lot #1910751, Molecular Probes, Invitrogen) or goat Alexa Fluor 546-conjugated anti-rabbit secondary antibody (A-11035, lot #1904467, Molecular Probes, Invitrogen) for 1 h on ice, and washed twice in PBS 1×. Fluorescence-activated cell sorting (FACS) analysis was performed using LSRII and LSR Fortessa cytometers, following the gating strategies described in Supplementary Fig. 11. Cell sorting was performed with a FACSAria or BD Influx.

[2] = tested on: pre-LSC activity of Lmo2^Tg DN3a thymocytes; assay: Transplantation of in vitro treated Lmo2^Tg DN3a thymocytes (fold expansion, engraftment); format: in vivo, mouse; settings: thymus of recipients 6 weeks post-transplantation of Lmo2^Tg DN3a thymocytes treated in vitro (Dynole 34-2 0.2 μM, Ruxolitinib 0.2 μM, DAPT 0.1 μM); individual recipients
Procedure: Single-cell suspension of murine thymus cells were intravenously injected into sublethally irradiated (650 Rads) isogenic Ly5.1 (Cd45.1) mice. Fold expansion was calculated by dividing the absolute output number of donor-derived DN3a cells harvested at the experimental endpoint by the respective number of DN3a thymocytes injected in each recipient. Limiting dilution transplantations were performed as described, by injecting various doses (10^1 to 10^6) of thymocytes per recipient, and mice were scored positive when T-cell lineage reconstitution assessed 6 weeks after transplantation was >1%. Leukemia-propagating cell frequency was calculated by applying Poisson statistics using the ELDA: Extreme Limiting Dilution Analysis software (Walter and Eliza Hall Institute Bioinformatics, Parkville VIC, Australia)[96]. Limiting dilution transplantations were performed independently from any other transplantation assays, using thymocytes from three different Lmo2^Tg mice for each cohort. Kaplan–Meier survival and statistical analysis were performed using GraphPad Prism. 6.0 software (GraphPad Software Inc, San Diego CA, USA).

[3] = tested on: pStat5 in leukemic DN3a cells from primary Lmo2^Tg T-ALL; assay: IL-7-induced pStat5 in leukemic DN3a cells from primary Lmo2^Tg T-ALL; format: cell-based, mouse
Procedure: as §1
For in vitro IL-7 stimulation assays, cells were starved in serum-free DMEM at 37 °C, then incubated with either vehicle or Dynole 34-2 or Ruxolitinib (INCB018424; #S1378, Selleckchem), or DAPT (GSI-IX; #S2215, Selleckchem) resuspended in DMSO for 1 h. Thymocytes were subsequently stimulated with 25 ng/mL IL-7 at 37 °C for 20 min and washed twice using cold PBS 1×. Cells were incubated with 25 ng/mL Rat IgG (Sigma-Aldrich Pty Ltd, Castle Hill NSW, Australia) and with a PE-conjugated antibody for detection of IL-7R (CD127) for 1 h on ice, as described in the FACS analysis section. PE-conjugated isotype was used as negative control. Cells were washed twice, fixed and phosphoflow analysis performed as described in the FACS analysis section. The analysis was performed in triplicate and the mean fluorescence intensity (MFI) observed without stimulation was reported as 100%.

[4] = Lmo2^Tg DN3a cells co-cultured on OP9-DL1 with cytokines, individual animals
[5] = Supplementary Figure 2c, unstimulated and vehicle controls in the same table
[6] = leukemic DN3a cells of TALL249, IL-7 stimulation
[7] = leukemic DN3a cells of TALL257, IL-7 stimulation
[8] = leukemic DN3a cells of TALL273, IL-7 stimulation
[9] = leukemic DN3a cells of TALL582, IL-7 stimulation
[10] = leukemic DN3a cells of TALL588, IL-7 stimulation
[11] = leukemic DN3a cells of TALL742, IL-7 stimulation

| Compound | Hes1 (MFI) [1, 4] | p-Akt (MFI) [1, 4] | p-Erk (MFI) [1, 4] | p-S6 (MFI) [1, 4] | p-p38 (MFI) [1, 4] | pStat5 (MFI) [1, 4] | Hes1 (MFI) [1, 5] | Fold expansion DN3a cells [2] | pStat5 (MFI) [3, 6] [MFI] | pStat5, FOLD over unstimulated [3, 6] [fold] | pStat5 (MFI) [3, 7] [MFI] | pStat5, FOLD over unstimulated [3, 7] [fold] | pStat5 (MFI) [3, 8] [MFI] | pStat5, FOLD over unstimulated [3, 8] [fold] | pStat5 (MFI) [3, 9] [MFI] | pStat5, FOLD over unstimulated [3, 9] [fold] | pStat5 (MFI) [3, 10] [MFI] | pStat5, FOLD over unstimulated [3, 10] [fold] | pStat5 (MFI) [3, 11] [MFI] | pStat5, FOLD over unstimulated [3, 11] [fold] |
| --- | --- | --- | --- | --- | --- | --- | --- | --- | --- | --- | --- | --- | --- | --- | --- | --- | --- | --- | --- | --- |
| CCCCCCCCNC(=O)C(C#N)=Cc1cn(CCCN(C)C)c2ccccc12 [Dynole 34-2, 2-Cyano-N-octyl-3-(1-(3-dimethylaminopropyl)-1H-indol-3-yl)-acrylamide] | 5911 MFI and 6176 MFI and 5994 MFI and 6141 MFI | 1455 MFI and 2044 MFI and 1472 MFI and 1916 MFI | 2822 MFI and 3661 MFI and 3448 MFI and 2830 MFI | 4904 MFI and 4987 MFI and 5062 MFI and 5235 MFI | 4351 MFI and 3539 MFI and 4397 MFI and 3757 MFI | 2745 MFI and 2767 MFI and 2938 MFI and 3210 MFI | 1218 MFI and 1199 MFI and 1165 MFI | 0.05 fold and 0.01 fold and 3.00 fold and 6.41 fold and 5.91 fold and 0.19 fold and 17.69 fold | 3097 | 0.78 | 1676 | 1.08 | 2251 | 1.00 | 15189 | 0.40 | 2662 | 1.03 | 5864 | 1.03 |
| N#CC[C@H](C1CCCC1)n1cc(-c2ncnc3[nH]ccc23)cn1 [Ruxolitinib] |  |  |  |  |  |  | 1340 MFI and 1445 MFI and 1491 MFI | 0.06 fold and 0.01 fold and 5.29 fold and 8.54 fold and 22.76 fold and 8.51 fold | 2437 | 0.61 | 2111 | 1.36 | 2300 | 1.02 | 33429 | 0.88 | 3772 | 1.47 | 5460 | 0.96 |
| C[C@H](NC(=O)Cc1cc(F)cc(F)c1)C(=O)N[C@H](C(=O)OC(C)(C)C)c1ccccc1 [DAPT, N-[N-(3,5-Difluorophenacetyl)-L-alanyl]-S-phenylglycine t-butyl ester] |  |  |  |  |  |  | 1314 MFI and 1222 MFI and 1307 MFI | 0.05 fold and 0.01 fold and 0.07 fold and 2.41 fold and 0.20 fold and 11.64 fold | 15113 | 3.80 | 2628 | 1.69 | 2744 | 1.22 | 34040 | 0.89 | 3980 | 1.55 | 7661 | 1.35 |
